Reference: patent US20250136652A1, “FUSION PROTEIN FOR TARGETING RECOMBINANT PROTEINS FOR DEGRADATION” (The Regents of the University of California, priority 2022, published 2025)

System: synthetic drug-inducible transcription factor (SynTF) fused to a SynZip
Assay: STUD negative feedback circuit regulating SynTF in Jurkat T cells, GFP reporter
Type: cell-based
Conditions: GZV 72 hours at 37 C
Source text: FIG. 6A: STUDs can be composed into negative feedback circuit to regulate synthetic transcription factor (SynTF). Cartoon diagram of plasmids used in negative feedback circuit transduced into Jurkat T cells. Synthetic transcription factors used in this work (grey) are made up of a transcriptional activation domain (AD) and a DNA binding domain (DBD) separated by a NS3 protease. In the absence of the NS3 inhibitor grazoprevir (GZV), the TF is destabilized and non-functional. On the other hand, the addition of GZV stabilizes the TF and allows for transcription of the gene cassette downstream of the SynTF promoter (pSynTF). Three types of circuits were designed: (1) A negative feedback circuit that has the SynTF driving expression of the GFP reporter and the STUD which results in degradation of the SynTF and shut off the circuit. […]
The circuit has three components: (1) a synthetic drug-inducible transcription factor (SynTF) fused to a SynZip, (2) a GFP reporter, and (3) a SynZip STUD that targets the SynTF (FIG. 6A). […] After incubation, we assay for GFP fluorescence by flow cytometry and gate on cells expressing the co-transduction markers (mCherry and tagBFP) for both plasmids relative to a untransduced control. […]

## SynZip STUD: Fusion protein SEQ ID NO: 413: lysine-free modified synZIP18 heterodimerization domain, flexible linker, C-terminal RRRG degron; 55 amino acids (SIAATLENDLARLENENARLERDIANLERDLARLEREEAYFGSGSGSGSGSRRRG)
  inhibition of SynTF (fold change of median GFP relative to DMSO): inhibits the SynTF
